Experimental data: patent US6670394B1, “Method for treating COPD” (SmithKline Beecham Corporation, priority 1999, dated 2003)

Legend:
[1] = target: T1, low affinity form of PDE 4 (human monocyte PDE 4 / hrPDE) (Homo sapiens, UniProt P27815); assay: PDE 4 catalytic activity assay (low affinity form, LPDE 4); assay type: biochemical; details: HPDE 4 IC50/LPDE 4 IC50
T1 construct: made in house; host or cells: yeast
Description: Overall, most of the recombinant PDE 4 expressed in this system exists as LPDE 4 and only a small fraction as HPDE 4. Consequently, inhibition of recombinant PDE 4 catalytic activity primarily reflects the actions of compounds at LPDE 4. Inhibition of PDE 4 catalytic activity can thus be used as an index of the potency of compounds at LPDE 4.

[2] = target: high affinity rolipram binding site of PDE 4; assay: [3H]-rolipram binding competition assay (high affinity form, HPDE 4); details: competition for 1 nM [3H]-rolipram, rat brain high speed supernatants, 1 hour at 30° C.
Description: Rat brain high speed supernatants were used as a source of protein. […] The assay was run for 1 hour at 30° C. The reaction was terminated and bound ligand was separated from free ligand using a Brandel cell harvester. Competition for the high affinity binding site was assessed under conditions that were identical to those used for measuring low affinity PDE activity, expect that [^3H]-cAMP and [^3H]5′-AMP were not present.

[3] = system: TNFα production from isolated human monocytes; acid secretion in isolated rabbit parietal glands; assay: Therapeutic index, in vitro comparison: TNFα suppression in human monocytes versus acid secretion in rabbit parietal glands; assay type: cell-based; details: in comparison with R-rolipram
Description: Samples were then centrifuged and radioactivity in aliquots of the supernatant fraction and pellet were determined. […] The data were expressed as a percent of a response produced by a maximal concentration of histamine (100 μM). EC50 values were determined by linear interpolation using the maximum response obtained for each compound.
TNFα inhibition was assessed in human peripheral blood monocytes which were purified (Collata) from freshly obtained buffy coats or plasma-phoresis residues of blood from normal human donors. […] The cells were allowed to adhere for 1 hr, after which time the supernatant was aspirated and 1 ml of fresh medium (RPMI-1640 containing 1% fetal calf serum and penicillin/streptomycin at 10 U/ml) was added. The cells were incubated for 45 min in the presence or absence of test compounds at concentrations ranging from 1 nM to 1 mM prior to the addition of LPS (E. coli. 055:B5, Sigma Chemicals) to yield a final concentration of 100 ng/ml. […]
Levels of TNFα were measured using a ELISA (Winston) employing a murine monoclonal anti-human TNFα antibody (see below) as the capture antibody and a polyclonal rabbit antihuman TNFα as the second antibody. […] TNFα levels in samples were calculated from a standard curve generated with recombinant human TNFα produced in E. coli. […]

[4] = system: acid secretion; details: rats, particularly in combination with an activator of adenylate cyclase such as histamine; cited from earlier work
[5] = system: COPD; assay: Administration to humans suffering from COPD; assay type: in vivo, human
Description: As regards treating COPD, the compound cis-[4-cyano-4-(3-cyclopentyloxy-4-methoxyphenyl)cyclohexan-1-carboxylate] was administered to humans suffering from COPD.

[6] = clinical studies; cited from earlier work

T1 sequence (P27815 1-686 isoform P27815-3): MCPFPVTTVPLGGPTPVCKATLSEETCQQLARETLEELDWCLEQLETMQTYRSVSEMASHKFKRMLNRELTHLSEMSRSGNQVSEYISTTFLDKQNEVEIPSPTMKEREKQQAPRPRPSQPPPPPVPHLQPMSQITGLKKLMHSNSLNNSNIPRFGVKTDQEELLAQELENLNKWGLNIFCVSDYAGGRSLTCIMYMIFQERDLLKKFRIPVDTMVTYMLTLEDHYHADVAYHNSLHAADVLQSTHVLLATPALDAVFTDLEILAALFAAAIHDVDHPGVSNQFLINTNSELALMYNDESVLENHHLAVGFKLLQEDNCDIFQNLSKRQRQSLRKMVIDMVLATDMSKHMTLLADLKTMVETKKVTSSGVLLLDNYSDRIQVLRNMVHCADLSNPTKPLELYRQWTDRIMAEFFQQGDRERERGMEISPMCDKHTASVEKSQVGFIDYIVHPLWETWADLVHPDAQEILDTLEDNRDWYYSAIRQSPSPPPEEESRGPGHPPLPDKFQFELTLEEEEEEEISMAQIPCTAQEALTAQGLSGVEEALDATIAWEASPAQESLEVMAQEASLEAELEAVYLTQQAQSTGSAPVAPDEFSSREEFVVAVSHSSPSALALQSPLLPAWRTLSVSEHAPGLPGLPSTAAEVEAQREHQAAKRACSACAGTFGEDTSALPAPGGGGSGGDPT

| Structure (SMILES) | High/Low Ratio (IC50 high affinity form divided by IC50 low affinity form) [1] | further results |
| --- | --- | --- |
| COc1ccc([C@@H]2CC[C@H](C(=O)O)C2)cc1OC1CCCC1 (relative stereo) [cis-[3-(3-cyclopentyloxy-4-methoxyphenyl)cyclopentane-1-carboxylate]] | 0.0078 | IC50 [2]: 0.021 µM |
| COc1ccc(C2CN(Cc3ccc(N)cc3)C(=O)N2)cc1OC1CCCC1 (centres unmarked) [1-(4-aminobenzyl)-4-(3-cyclopentyloxy-4-methoxyphenyl)-2-imidazolidinone] | 0.07 |  |
| COc1ccc(C2CCC(c3nnn[nH]3)C2)cc1OC1CCCC1 (centres unmarked) [1-(5-tetrazole)-3-(3-cyclopentyloxy-4-methoxyphenyl)cyclopentane] | 0.0018 |  |
| COC(=O)C1CC(C#N)(c2ccc(OC(F)F)c(OCC3CC3)c2)CCC1=O (centres unmarked) [2-carbomethoxy-4-cyano-4-(3-cyclopropylmethoxy-4-difluoromethoxyphenyl)cyclohexan-1-one] |  | improvement in therapeutic index [3]: 100 fold |
| COc1ccc(C2CCN(Cc3ccc(NC(=NC#N)SC)cc3)C2=O)cc1OC1CCCC1 (centres unmarked) [3-(cyclopentyloxy-4-methoxyphenyl)-1-(4-N′-[N2-cyano-S-methyl-isothioureido]benzyl)-2-pyrrolidone] | 0.30 |  |
| CCOC(=O)C=C1C[C@H](c2ccc(OC)c(OC3CCCC3)c2)CN1 [(R)-(+)-ethyl [4-(3-cyclopentyloxy-4-methoxyphenyl)pyrrolidine-2-ylidene]acetate] | 2.143 |  |
| CCOC(=O)C=C1C[C@@H](c2ccc(OC)c(OC3CCCC3)c2)CN1 [(S)-(−)-ethyl[4-(3-cyclopentyloxy-4-methoxyphenyl)pyrrolidine-2-ylidene]acetate] | .98 |  |
| CC(C)Cn1c(=O)n(C)c(=O)c2[nH]cnc21 [IBMX, reference compound] | 0.698 |  |
| NC(=O)C(=O)NCCc1ccc(OC(F)F)c(OC(F)F)c1 [N-[2-(3,4-bisdifluoromethoxy-phenyl)ethyl]oxamide] | 0.25 |  |
| COc1ccc(CCNC(=O)C(N)=O)cc1OC1CCCC1 [N-[2-(3-cyclopentyloxy-4-methoxyphenyl)ethyl]oxamide] | 0.013 |  |
| CCCCOc1cc(CC2CNC(=O)N2)ccc1OC (centres unmarked) [Ro 20-1724] |  | acid secretion [4]: enhance acid secretion |
| COc1ccc(C2(C#N)CCC(C(=O)O)CC2)cc1OC1CCCC1 (stereo not drawn) [cis-[4-cyano-4-(3-cyclopentyloxy-4-methoxyphenyl)cyclohexan-1-carboxylate]] |  | effect in subjects suffering from COPD [5]: reduced inflammation, bronchodilation and pulmonary neuromodulation |
| N#CC1(c2ccc(OC(F)F)c(OCC3CC3)c2)CCC(O)CC1 (stereo not drawn) [cis-[4-cyano-4-(3-cyclopropylmethoxy-4-difluoromethoxyphenyl)cyclohexan-1-ol]] |  | improvement in therapeutic index [3]: 100 fold |
| OCCN(CCO)c1nc(N2CCCCC2)c2nc(N(CCO)CCO)nc(N3CCCCC3)c2n1 [dipyridamole, reference compound] | 6.25 |  |
| COc1ccc(C2CNC(=O)C2)cc1OC1CCCC1 (centres unmarked) [rolipram] |  | acid secretion [4]: enhance acid secretion; side effects [6]: has psychotropic activity and produces gastrointestinal effects |
